Data reported in patent publication US12150940B2, “WASp-protecting small molecules, compositions, methods and uses thereof in the treatment of innate and acquired immune-related disorders or conditions” (BAR ILAN UNIVERSITY, priority 2016, dated 2024).
Peptide text beside a SMILES is read from it. * marks the point of attachment. Cbz = O=C(OCc1ccccc1)*

What was measured:
WASp = WASp expression in Meg-01 megakaryocyte cell line (western blot); format: cell-based, human; conditions: Meg-01 cells, treated vs untreated
Procedure: Freshly-isolated platelets were stimulated with 10 μM of TRAP-6 for the indicated time points, followed by lysis. WIP (FIG. 7A) or WASp (FIG. 7B) were immunoprecipitated from the lysates and analyzed by western blot for co-immunoprecipitation, using anti-WASp, anti-WIP or anti-PKCθ antibodies. WASp immunoprecipitates were immunoblotted for WASp ubiquitylation using anti-ubiquitin (Ub) antibody (FIG. 7C). Ubiquitylated WASp appears as a smear of bands above the MW of 65 kDa with a prominent band at ˜81 kDa. […] Blots are representative of three independent experiments. Meg-01 megakaryocyte cell line was activated in the presence (+) or absence (−) of MG132, followed by lysis (FIG. 7E). WASp ubiquitylation was determined by co-immunoprecipitation analysis as in FIG. 7C. FIG. 7F illustrates Meg-01 cells that were transfected with PKCθ-specific siRNA (+) or non-specific (NS) siRNA (−). 24 h later, the cells were stimulated and lysed. PKCθ and WASp protein expression levels were analyzed by western blot with anti-PKCθ and anti-WASp antibodies, and with anti-GAPDH as loading control. Relative protein expression was determined by densitometric analysis and is presented below the corresponding lanes. […] Blots are representative of three independent experiments.
Human primary PBMCs were isolated from whole blood of healthy donors, as previously described (Barda-Saad et al, 2005). […]

WAVE2 = target: T1, WAVE2 (Homo sapiens, UniProt Q9Y6W5); assay: MST binding, YFP-WAVE2 in HEK 293T cell lysate
T1 construct: expressed in transfected cells; host or cells: HEK 293T, transient transfection; unpurified cell lysate
Procedure: Diluted cell lysates of YFP-WASp/N-WASp/WAVE2-expressing HEK 293T cells were incubated with serially-diluted (100 μM-3 nM) SMCs. The mixed lysates and SMCs were then loaded into standard-treated Monolith™ capillaries and the fluorescence of the samples was measured by the Monolith NT.115 instrument at 60% MST power. Binding curves of WASp with SMC #6 (FIG. 3A), SMC #30 (FIG. 3B), SMC #33 (FIG. 3C), SMC #34 (FIG. 3D) and Y-27632 (FIG. 3E) or of N-WASp (FIG. 3F) or WAVE2 (FIG. 3G) with SMC #34 were generated by the NanoTemper Analysis 2.231 software. Normalized fluorescence (hot fluorescence/initial fluorescence) is plotted as a function of SMC concentration. […]
YFP-tagged WASp was obtained from cell lysates of Human Embryonic Kidney (HEK) 293T, transiently transfected with YFP-WASp/WAVE2/N-WASp by DNA-calcium phosphate co-precipitation as previously described (Reicher et al, 2012). […] After loading into the instrument (Monolith NT.115, NanoTemper), the samples were measured by standard protocols at 60% MST power. […] KD values were determined using the NanoTemper analysis software (NT Analysis 1.5.37 or 2.2.31).
Following this in silico screening, the inventors identified eight SMCs (#6, #23, #24, #25, #30, #32, #33, #34, see Table 1). […] The SMCs that specifically bind the degradation pocket of WASp were further evaluated by the inventors.

T1 sequence (Q9Y6W5 whole entry, species assumed): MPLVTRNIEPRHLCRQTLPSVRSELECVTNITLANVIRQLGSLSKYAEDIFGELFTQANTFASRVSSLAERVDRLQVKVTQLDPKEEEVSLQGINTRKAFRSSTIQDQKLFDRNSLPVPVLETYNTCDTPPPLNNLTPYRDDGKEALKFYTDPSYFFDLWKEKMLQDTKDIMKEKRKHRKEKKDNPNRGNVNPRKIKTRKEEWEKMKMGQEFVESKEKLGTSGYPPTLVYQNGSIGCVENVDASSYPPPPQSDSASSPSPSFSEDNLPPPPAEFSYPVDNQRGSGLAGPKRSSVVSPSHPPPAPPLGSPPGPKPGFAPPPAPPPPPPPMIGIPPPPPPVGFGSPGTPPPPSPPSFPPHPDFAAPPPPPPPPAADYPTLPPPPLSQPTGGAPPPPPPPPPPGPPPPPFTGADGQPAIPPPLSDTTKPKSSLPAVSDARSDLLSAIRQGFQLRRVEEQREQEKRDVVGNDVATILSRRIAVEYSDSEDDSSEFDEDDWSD

Compound	WASp in whole cell lysates (W.C.L) (WASp)	binding to WAVE2 (WAVE2)
CC(C)C[C@@H](C=O)NC(=O)[C@H](CC(C)C)NC(=O)[C@H](CC(C)C)NC(=O)OCc1ccccc1 [MG132] (Cbz-Leu-Leu-Leu-aldehyde)	more WASp was detected	
CC1CCCC(C)N1C(=O)CSc1nnc(COc2cccc3cccnc23)o1 (centres unmarked) [SMC #34, 1-(2,6-dimethylpiperidin-1-yl)-2-[[5-(quinolin-8-yloxymethyl)-1,3,4-oxadiazol-2-yl]sulfanyl]ethanone]		no binding
